In ChEMBL document CHEMBL1141900, “Synthesis and antibacterial activity of C2-fluoro, C6-carbamate ketolides, and their C9-oximes” (2005):
≈ marks a conversion by molar mass, not a printed value.

Assays:
Format in all cases: functional
Streptococcus pneumoniae [1] = test: Minimum inhibitory concentration of the compound against 3 […] Streptococcus pneumoniae OC4051 with an erm(B)-ribosomal methylase-mediated resistance was determined
Enterococcus faecalis = test: Minimum inhibitory concentration of the compound againstEnterococcus faecalis ATCC 51299 with an erm(B)-encoded ribosomal methylase was determined
Streptococcus pneumoniae [2] = test: Minimum inhibitory concentration of the compound against 3 […] Streptococcus pneumoniae OC4421 with an mef(A) efflux-mediated resistance was determined
Staphylococcus aureus = test: Minimum inhibitory concentration of the compound against erythromycin-susceptible Staphylococcus aureus Smith OC4172 was determined
Streptococcus pneumoniae [3] = test: Minimum inhibitory concentration of the compound against erythromycin-susceptible Streptococcus pneumoniae was determined
Haemophilus influenzae = test: Minimum inhibitory concentration of the compound against Haemophilus influenzae OC4882 was determined

SMILES | MIC (Streptococcus pneumoniae [1]) [µg/mL] | MIC (Enterococcus faecalis) [µg/mL] | MIC (Streptococcus pneumoniae [2]) [µg/mL] | MIC (Staphylococcus aureus) [µg/mL] | MIC (Streptococcus pneumoniae [3]) [µg/mL] | MIC (Haemophilus influenzae) [µg/mL]
CC[C@H]1OC(=O)[C@@](C)(F)C(=O)[C@H](C)[C@@H](O[C@@H]2O[C@H](C)C[C@H](N(C)C)[C@H]2O)[C@](C)(OC(N)=O)C[C@@H](C)/C(=N\O)[C@H](C)[C@H]2NC(=O)O[C@@]21C | 2 (≈ 2.96 µM) | > 16 | 2 (≈ 2.96 µM) | 1 (≈ 1.48 µM) | 0.12 (≈ 0.178 µM) | 4 (≈ 5.93 µM)
CC[C@H]1OC(=O)[C@@](C)(F)C(=O)[C@H](C)[C@@H](O[C@@H]2O[C@H](C)C[C@H](N(C)C)[C@H]2O)[C@](C)(OC(=O)NC/C=C/c2ccccc2)C[C@@H](C)/C(=N\O)[C@H](C)[C@H]2NC(=O)O[C@@]21C | 0.12 (≈ 0.152 µM) | > 16 | 0.5 (≈ 0.632 µM) | 0.25 (≈ 0.316 µM) | 0.03 (≈ 0.0379 µM) | 2 (≈ 2.53 µM)
CC[C@H]1OC(=O)[C@@](C)(F)C(=O)[C@H](C)[C@@H](O[C@@H]2O[C@H](C)C[C@H](N(C)C)[C@H]2O)[C@](C)(OC(=O)NCCOCc2ccc(-c3ncccn3)cc2)C[C@@H](C)C(=O)[C@H](C)[C@H]2NC(=O)O[C@@]21C | 0.12 (≈ 0.138 µM) | > 16 | 0.12 (≈ 0.138 µM) | 0.25 (≈ 0.287 µM) | 0.06 (≈ 0.0688 µM) | 8 (≈ 9.17 µM)
CC[C@H]1OC(=O)[C@H](C)C(=O)[C@H](C)[C@@H](O[C@@H]2O[C@H](C)C[C@H](N(C)C)[C@H]2O)[C@](C)(OC)C[C@@H](C)C(=O)[C@H](C)[C@H]2N(CCCCn3cnc(-c4cccnc4)c3)C(=O)O[C@]12C [TELITHROMYCIN] | 0.06 (≈ 0.0739 µM) | 16 (≈ 19.7 µM) | 0.12 (≈ 0.148 µM) | 0.12 (≈ 0.148 µM) | ≤ 0.015 | 2 (≈ 2.46 µM)
CC[C@H]1OC(=O)[C@@](C)(F)C(=O)[C@H](C)[C@@H](O[C@@H]2O[C@H](C)C[C@H](N(C)C)[C@H]2O)[C@](C)(OC(=O)NC/C=C/c2ccc(-c3cccnn3)cc2)C[C@@H](C)/C(=N\O)[C@H](C)[C@H]2NC(=O)O[C@@]21C | 0.06 (≈ 0.069 µM) | > 4 | 0.25 (≈ 0.288 µM) | 0.5 (≈ 0.575 µM) | 0.03 (≈ 0.0345 µM) | 2 (≈ 2.3 µM)
CC[C@H]1OC(=O)[C@@](C)(F)C(=O)[C@H](C)[C@@H](O[C@@H]2O[C@H](C)C[C@H](N(C)C)[C@H]2O)[C@](C)(OC(N)=O)C[C@@H](C)C(=O)[C@H](C)[C@H]2NC(=O)O[C@@]21C | > 16 | > 16 | 2 (≈ 3.03 µM) | 1 (≈ 1.52 µM) | 0.12 (≈ 0.182 µM) | 8 (≈ 12.1 µM)
CC[C@H]1OC(=O)[C@@](C)(F)C(=O)[C@H](C)[C@@H](O[C@@H]2O[C@H](C)C[C@H](N(C)C)[C@H]2O)[C@](C)(OC(=O)NC/C=C/c2ccc(-c3ccccn3)cc2)C[C@@H](C)C(=O)[C@H](C)[C@H]2NC(=O)O[C@@]21C | 0.06 (≈ 0.0703 µM) | 4 (≈ 4.69 µM) | 0.12 (≈ 0.141 µM) | 0.25 (≈ 0.293 µM) | 0.06 (≈ 0.0703 µM) | 4 (≈ 4.69 µM)
CC[C@H]1OC(=O)[C@@](C)(F)C(=O)[C@H](C)[C@@H](O[C@@H]2O[C@H](C)C[C@H](N(C)C)[C@H]2O)[C@](C)(OC(=O)NC/C=C/c2ccc(-c3ccncn3)cc2)C[C@@H](C)C(=O)[C@H](C)[C@H]2NC(=O)O[C@@]21C | 0.06 (≈ 0.0703 µM) | > 16 | 0.12 (≈ 0.141 µM) | 0.25 (≈ 0.293 µM) | 0.03 (≈ 0.0351 µM) | 4 (≈ 4.68 µM)
CC[C@H]1OC(=O)[C@@](C)(F)C(=O)[C@H](C)[C@@H](O[C@@H]2O[C@H](C)C[C@H](N(C)C)[C@H]2O)[C@](C)(OC(=O)NC/C=C/c2ccc3ncccc3c2)C[C@@H](C)/C(=N\O)[C@H](C)[C@H]2NC(=O)O[C@@]21C | 0.03 (≈ 0.0356 µM) | 2 (≈ 2.38 µM) | 0.12 (≈ 0.143 µM) | 0.25 (≈ 0.297 µM) | 0.03 (≈ 0.0356 µM) | 2 (≈ 2.38 µM)
CC[C@H]1OC(=O)[C@H](C)[C@@H](O[C@H]2C[C@@](C)(OC)[C@@H](O)[C@H](C)O2)[C@H](C)[C@@H](O[C@@H]2O[C@H](C)C[C@H](N(C)C)[C@H]2O)[C@](C)(O)C[C@@H](C)C(=O)[C@H](C)[C@@H](O)[C@]1(C)O [ERYTHROMYCIN] | > 16 | > 16 | 4 (≈ 5.45 µM) | 0.5 (≈ 0.681 µM) | 0.06 (≈ 0.0818 µM) | 8 (≈ 10.9 µM)
CC[C@H]1OC(=O)[C@@](C)(F)C(=O)[C@H](C)[C@@H](O[C@@H]2O[C@H](C)C[C@H](N(C)C)[C@H]2O)[C@](C)(OC(=O)NC/C=C/c2ccc(-c3ncccn3)o2)C[C@@H](C)C(=O)[C@H](C)[C@H]2NC(=O)O[C@@]21C | 0.12 (≈ 0.142 µM) | > 16 | 0.5 (≈ 0.592 µM) | 0.5 (≈ 0.592 µM) | 0.06 (≈ 0.0711 µM) | 16 (≈ 19 µM)
CC[C@H]1OC(=O)[C@@](C)(F)C(=O)[C@H](C)[C@@H](O[C@@H]2O[C@H](C)C[C@H](N(C)C)[C@H]2O)[C@](C)(OC(=O)NC/C=C/c2ccc(-c3cccnn3)cc2)C[C@@H](C)C(=O)[C@H](C)[C@H]2NC(=O)O[C@@]21C | 0.06 (≈ 0.0703 µM) | 4 (≈ 4.68 µM) | 0.12 (≈ 0.141 µM) | 0.12 (≈ 0.141 µM) | 0.03 (≈ 0.0351 µM) | 4 (≈ 4.68 µM)
